The record followed here is US20200046658A1, “PHARMACEUTICAL COMPOSITION FOR INDUCING EXERCISE MIMETIC EFFECT” (CELLVERTICS CO., LTD., priority 2015, published 2020).

The test system of assay [1] is spontaneously hypertensive rat (SHR). As to the kind of experiment: Serum inflammatory markers, reactive oxygen species and adiponectin in SHR. Format: in vivo. The conditions noted are these: 8 weeks old, drug for 4 weeks, mean±SD; for ROS: blood. The procedure:
(§1) The animals of the group I were anesthetized at 4 weeks of age while the rats of other groups were anesthetized at 8 weeks of age after being treated for 4 weeks. […] The recovered organs were kept in a refrigerator at −80° C. or in 10% formalin for fixation.
The concentration of total cholesterol, HDL cholesterol, LDL cholesterol and triglyceride was measured by enzymatic colorimetry (Roche Diagnostics GmbH; Mannheim, Germany). Also, serum assays for inflammatory markers were conducted using a […] cytokine Milliplex panel (Millipore Corporation, Billerica, Mass., USA) as recommended for cytokines (interleukin (IL)-1α, IL-1β, IL-6, IL-4, IL-10 and TNF-α). Acquisition was performed on a Luminex 100 platform and data analysis was carried out using the Multiplex analyzer. Reactive oxygen species and adiponectin were measured using the ELISA kit (MBS815494, Mybiosource). The measured blood adiponectin level was calibrated for the visceral fat weight (g).

Assay [2] shares this test system. As to the kind of experiment: ATP level in tissues of SHR by ELISA. The class given is in vivo. The conditions noted are these: versus control group SHRs, FIG. 5. The procedure: 0.02 g of liver tissue was homogenized in 500 μL of PBS. The homogenate was centrifuged at 1500×g (or 5000 rpm) for 15 minutes and the supernatant was subjected to measurement. After pouring 100 μL of a reference material or sample to an adequate well of an antibody-precoated microtiter plate, 10 μL of the residual solution was added to the sample. After adding 50 μL of a conjugate to each well and mixing, the plate was covered with a lid and incubated at 37° C. for 1 hour. After adding 50 μL of substrate A or B to each well, incubation was conducted at 37° C. for 15 minutes. After adding a stop solution to each well, optical density was measured at 450 nm using a microplate reader.
The level of ATP in the heart, skeletal muscle and liver was measured by ELISA for the 4-week-old basal rat (I), midodrine-administered rat (II), atenolol-administered rat (III) and 8-week-old unadministered control group rat (IV).
In general terms: ELISA stands for enzyme-linked immunosorbent assay.

The test system is the same in assay [3]. As to the kind of experiment: Echocardiographic examination of spontaneously hypertensive rats. The class given is in vivo. The text has this: Spontaneously hypertensive rat (SHR) is an animal model in which hereditary hypertension is expressed. It is known that the hypertension which is the most similar to human primary hypertension is expressed. In SHR, blood pressure begins to increase around 4-6 weeks of age and hypertension is developed seriously at 8-12 weeks. SHR is widely used in studies as an animal mode of primary hypertension, especially hypertension with cardiac lesions, because it is frequently accompanied damage to the hypertensive target organs, such as cardiac hypertrophy, heart failure, renal disorder, etc.
3-week-old spontaneously hypertensive rats (SHRs) were kept under a standardized condition (21° C., 41-62% humidity) with periodic light/dark (10/14 hour) cycles and were freely allowed to access water and laboratory feed. All the animal experiments were approved by the Korea University Institutional Animal Care and Use Committee (KUIACUC-2012-100) and were in accordance with the Guideline for the Care and Use of Laboratory Animals.
After anesthetization by intramuscular injection of Zoletil (8 mg/kg) and xylazine (2 mg/kg), the rats were laid on their left sides and M-mode echo images were obtained. The examination was conducted using Vivid 7 (GE Medical Systems, Milwaukee, Wis., USA) equipped with a 12-MHz transducer. After acquiring optimized 2-dimensional short-axis images for the left ventricle at the papillary muscle level, M-mode tracing and echocardiographic images were recorded at a speed of 100 mm/s.

Assay [4] relates to aorta and cardiac muscle tissue. As to the kind of experiment: mRNA expression of AT1R, eNOS, SOD, gp91-phox, TNFα in aorta and cardiac muscle of SHR. The class given is in vivo, rat. The procedure:
as §1
Full-length RNA was extracted using the TriZol reagent according to the manufacturer's instructions. Complementary DNA was synthesized from the full-length RNA using the Power cDNA Synthesis kit and polymerase chain reaction was conducted for angiotensin II type I receptor (AT1R), endothelial nitric oxide synthase (eNOS), superoxide dismutase (SOD), gp91-phox (NADPH), tumor necrosis factor-alpha (TNF-α) and GAPDH using the PCR Premix kit.
The mRNA expression level of the genes related with vasoconstriction, nitric oxide production, oxidative stress and inflammation in the aorta and cardiac muscle tissue was investigated by […] for the 4-week-old basal rat (I), midodrine-administered rat (II), atenolol-administered rat (III) and 8-week-old unadministered control group rat (IV).

Assay [5] in a line: Body weight, cardiac weight and abdominal fat of SHR. Format: in vivo, rat. The conditions noted are these: 8 weeks old, drug in drinking water for 4 weeks (midodrine 0.2 mg/kg/day, atenolol 1 mg/kg/day), mean±SD. The procedure: as §1
Body weight and abdominal fat were measured and compared for the midodrine-administered rat (II), atenolol-administered rat (III) and 8-week-old unadministered hypertension control group rat (IV).

Assay [6] has as its system mouse skeletal muscle cells (C2C12). As to the kind of experiment: Western blot of p-AMPK, PPAR-δ and PGC-1α in differentiating C2C12 cells. Format: cell-based. The conditions noted are these: versus untreated control. The procedure: C2C12 cells (mouse skeletal cell line) were seeded onto a 6-well plate in a CO2 incubator at 37° C. and cultured in a DMEM medium containing 10% FBS and 1% antibiotics to about 80% confluency. After replacing the medium with one containing 1% FBS, differentiation was conducted for 3 days. Then, after replacing the medium with one containing 1% FBS and then treating with a drug, experiment was conducted 24 hours later.
The protein content of the extract was measured by the Bradford's method. The extracted proteins (20-30 μg) were loaded on a 10% SDS-PAGE gel. Western blot assay was conducted using primary antibodies for AMPKα, phosphorylated AMPKα, PPARδ and PGC-1α. Images were obtained manually using the Kodak GBX developer and a fixative reagent.
Specifically, after treating differentiating C2C12 cells with the compounds at different concentrations (10 μM, 30 μM, 50 μM), the expression of activated (phosphorylated) AMPK (p-AMPK), PPAR-δ and PGC-1α was investigated by western blot.
For orientation: Immunoblotting shows a protein as a band on a membrane.

Setting [7] is: SHR, 8 weeks old, drug in drinking water for 4 weeks (midodrine 0.2 mg/kg/day, atenolol 1 mg/kg/day), mean±SD.
Setting [8] is: C2C12, over 10 μM, 30 μM, 50 μM.

Structures are written as SMILES. Structures can show the parent of a compound that is named as a salt. Marks after values point to notes of the source that are not given here.

Consider `CC(C)NCC(O)COc1ccc(CC(N)=O)cc1` (stereo not drawn) [Atenolol], for which, in assay [1] (blood level calibrated for the visceral fat weight (g)), the Adiponectin is on record as 6136.5 ± 574.7^bc ng/ml/g. The ROS in assay [1] was 223.1 ± 45.4^a ng/ml. In addition, the ROS entry in assay [1] (listed as atenolol) was “lower”. Also, in assay [1] (serum), the IL-1α is 5.51 ± 2.64^c μg/ml, the IL-1β is 2.02 ± 1.53^a μg/ml, the IL-4 is given as 2.94 ± 0.90^b μg/ml and the IL-6 is 5.62 ± 1.42^a μg/ml. For the same molecule, in assay [1] (serum), the IL-10 is on record as 15.33 ± 2.79^b μg/ml and the TNF-α is on record as 8.35 ± 1.36^b μg/ml. Also, in assay [1] (serum, listed as atenolol), the IL-1α entry is “significantly increased”, the IL-4 entry is “slightly higher”, the IL-10 result is on record as “slightly higher” and the TNF-α result was “significantly increased”. For the same molecule, the “ATP level in heart tissue” value in assay [2] was “higher”. The left ventricular performance result in assay [3] (8-week-old SHR, versus unadministered control (group IV)) was “higher”. In assay [3] (setting [7]), the “Diastolic left ventricular diaphragm” value is 1.50 ± 0.13^a mm, the “Diastolic left ventricular inner size” value is on record as 6.33 ± 0.35^a mm, the “Diastolic left ventricular wall” value is reported as 1.67 ± 0.16 mm and the “Left ventricular ejection fraction” value is 82.00 ± 5.31^a %. Moreover, in assay [3] (setting [7]), the “Left ventricular fractional shortening” value is 45.70 ± 5.82^a %, the “Left ventricular mass according to ASE” value is given as 1.10 ± 0.07^a g and the “Systolic left ventricular inner size” value is given as 3.43 ± 0.28^a mm. Moreover, the “TNFα expression in the aorta” value in assay [4] (among groups I-IV, FIG. 3A) is reported as “moderate”. Further, the “expression of angiotensin II AT1R mRNA in the cardiac muscle” value in assay [4] (among groups I-IV, FIG. 3B) was “moderate”. Besides, the “expression of angiotensin II AT1R mRNA in the aorta” value in assay [4] (versus control groups I and IV, FIG. 3A) is “lower”. Also, in assay [5], the Body weight is given as 296.46 ± 16.73^b g and the Cardiac weight is 1.47 ± 0.15^a g. Also, the Body weight entry in assay [5] (listed as atenolol) is “highest”.

In the case of `COc1ccc(OC)c(C(O)CNC(=O)C(N)Cc2ccccc2)c1` (stereo not drawn) [Compound 5, 2-amino-N-(2-(2,5-dimethoxyphenyl)-2-hydroxyethyl)-3-phenylpropanamide], in assay [6] (C2C12, 30 μM), the “expression of PPAR-δ” value is “significantly increased” and the “expression of p-AMPK” value was “significantly increased”.

Consider `COc1ccc(OC)c(C(O)CNC(=O)C(C)N)c1` (stereo not drawn) [Compound 7, 2-amino-N-(2-(2,5-dimethoxyphenyl)-2-hydroxyethyl)propanamide], for which the “expression of p-AMPK” value in assay [6] (C2C12, 10 μM) is given as “significant increase”; in assay [6] (C2C12, 50 μM) it was “significant increase”; in assay [6] (setting [8]), “concentration-dependent increase”. Moreover, the “expression of PPAR-δ” value in assay [6] (C2C12, 30 μM) is given as “significant increase”; in assay [6] (setting [8]), “concentration-dependent increase”.

Take `COc1cc(OC)cc(C(O)CNC(=O)CN)c1` (stereo not drawn) [Compound 8, 2-amino-N-(2-(3,5-dimethoxyphenyl)-2-hydroxyethyl)acetamide hydrochloride]: in assay [6] (C2C12, 50 μM), the “expression of PGC-1α” value is “significantly increased” and the “expression of p-AMPK” value is “significantly increased”. Besides, in assay [6] (setting [8]), the “expression of PGC-1α” value was “overall increase”, the “expression of PPAR-δ” value is reported as “overall increase” and the “expression of p-AMPK” value is listed as “overall increase”.

`CCc1ccc(OC)c(C(O)CNC(=O)CN)c1` (stereo not drawn) [Compound 9, 2-amino-N-(2-(5-ethyl-2-methoxyphenyl)-2-hydroxyethyl)acetamide hydrochloride]: in assay [6] (C2C12, 30 μM), the “expression of PGC-1α” value is recorded as “significantly increased” and the “expression of p-AMPK” value is on record as “significantly increased”. In assay [6] (C2C12, 50 μM), the “expression of PGC-1α” value was “significantly increased” and the “expression of p-AMPK” value is given as “significantly increased”. Also, in assay [6] (setting [8]), the “expression of PGC-1α” value is given as “overall increase”, the “expression of PPAR-δ” value is “overall increase” and the “expression of p-AMPK” value was “overall increase”.

In the case of `NCC(=O)NCC(O)c1ccccc1` (stereo not drawn) [Compound 10, 2-amino-N-(2-hydroxy-2-phenylethyl)acetamide hydrochloride], the “expression of PPAR-δ” value in assay [6] (C2C12, 10 μM) was “significantly increased”; in assay [6] (C2C12, 50 μM) it was “significantly increased”. Further, the “expression of p-AMPK” value is “significantly increased” in assay [6] (C2C12, 30 μM) and “significantly increased” in assay [6] (C2C12, 50 μM).
